“Also recorded” adds a separate entry of the source. Where a name gives a salt, the structure may show the parent alone.
Assays:
[1] = biological target: T1, human dopamine D4 receptor subtype (Homo sapiens, UniProt P21917); test: D4 receptor binding, displacement of [3H]YM-09151-2; settings: Example XXXIX table
T1 construct: expressed in transfected cells
T1 sequence (P21917 1-419): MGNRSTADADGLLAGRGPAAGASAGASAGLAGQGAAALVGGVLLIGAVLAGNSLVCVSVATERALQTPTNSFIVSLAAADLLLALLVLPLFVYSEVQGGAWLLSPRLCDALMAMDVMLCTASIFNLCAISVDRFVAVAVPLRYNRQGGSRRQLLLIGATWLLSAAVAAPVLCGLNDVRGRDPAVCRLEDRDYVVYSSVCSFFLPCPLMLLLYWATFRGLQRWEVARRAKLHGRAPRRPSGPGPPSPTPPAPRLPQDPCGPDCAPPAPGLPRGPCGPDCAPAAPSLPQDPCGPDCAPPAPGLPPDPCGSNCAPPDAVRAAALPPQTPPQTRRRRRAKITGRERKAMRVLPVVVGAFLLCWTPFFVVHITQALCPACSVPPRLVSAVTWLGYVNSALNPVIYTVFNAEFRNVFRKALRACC
Method: Assay for D4 Receptor Binding Activity
Clonal cell lines expressing the human dopamine D4 receptor subtype were harvested in PBS and the cells centrifuged and the pellets stored at −80° C. until used in the binding assay. The pellets were resuspended and the cells lysed at 4° C. in 50 mM Tris pH 7.4 buffer containing 120 mM NaCl, 1 mM EDTA and 5 mM MgCl2. The homogenate is centrifuged at 48000× g for 10 minutes at 4° C. The resulting pellet is resuspended in fresh buffer and centrifuged again. After resuspension of the pellet in fresh buffer at […] aliquot is removed for protein determination. The remaining homogenate is centrifuged as above, the supernatant removed and the pellet stored at 4° C. until needed at which time it is resuspended to a final concentration of […] with 50 mM Tris buffer (pH 7.4) and 120 mM NaCl just prior to use. Incubations were carried out for 60 minutes at 25° C. in the presence of 0.1 nM [^3H] YM-09151-2. The incubation was terminated by rapid filtration through Whatman GF/C filters and rinsed with 2×4 ml washes of chilled 50 mM Tris (pH 7.4) and 120 mM NaCl. Non-specific binding was determined with […] spiperone and radioactivity determined by coiunting in an LKB beta counter. Binding parameters were determined by non-linear least squares regression analysis, from which the inhibition constant (Ki) could be calculated for each test compound. The binding characteristics of some examples of this patent are shown in Table 2 for the dopamine D4 binding assay.

Dopamine Receptor D2 = Dopamine Receptor D2 (Homo sapiens, UniProt P14416); test: D2 receptor binding activity (Example XXXIX)
Method: (§1) Striatial tissue is dissected from adult male Sprague Dawley rats or BHK 293 cells are harvested containing recombinantly produced D2 or D3 receptors. The sample is homogenized in 100 volumes (w/vol) of 0.05 M Tris HCl buffer at 4° C. and pH 7.4. The sample is then centrifuged at 30,000× g and resuspended and rehomogenized. The sample is then centrifuged as described and the final tissue sample is frozen until use. The tissue is resuspended 1:20 (wt/vol) in 0.05 M Tris HCl buffer containing 100 mM NaCl.
(§2) Incubations are carried out at […] and contain 0.5 ml of tissue sample, 0.5 nM ^3H-raclopride and the compound of interest in a total incubation volume of 1.0 ml.
(§3) The following compounds were assayed for D2, D3, and D4 receptor binding activity using the assays described above.

Dopamine Receptor D3 = biological target: T2, Dopamine Receptor D3 (Homo sapiens, UniProt P35462); test: D3 receptor binding activity (Example XXXIX)
T2 construct: expressed in transfected cells; host or cells: BHK 293 cells (so in the source)
Method: as §1, §2, §3

[2] = biological target: T3, dopamine D4 receptors in rat hippocampus (Rattus norvegicus, UniProt P30729); test: Binding to D4 receptors in rat hippocampus
T3 construct: from tissue; host or cells: rat hippocampus
T3 sequence (P30729 1-387): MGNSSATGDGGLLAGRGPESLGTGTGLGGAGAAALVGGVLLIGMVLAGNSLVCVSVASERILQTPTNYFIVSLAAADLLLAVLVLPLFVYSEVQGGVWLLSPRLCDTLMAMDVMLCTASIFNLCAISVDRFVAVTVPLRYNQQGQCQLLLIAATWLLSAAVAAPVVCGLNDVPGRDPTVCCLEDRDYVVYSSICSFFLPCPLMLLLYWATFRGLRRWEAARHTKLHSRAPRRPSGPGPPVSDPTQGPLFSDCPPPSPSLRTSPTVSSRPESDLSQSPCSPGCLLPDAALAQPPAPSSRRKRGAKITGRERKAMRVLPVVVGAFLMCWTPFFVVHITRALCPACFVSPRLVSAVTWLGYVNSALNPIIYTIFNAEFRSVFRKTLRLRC

[3] = biological target: T4, dopamine D4 receptors in human hippocampus (Homo sapiens, UniProt P21917); test: Binding to D4 receptors in human hippocampus
T4 construct: from tissue; host or cells: human hippocampus
T4 sequence (P21917 1-419): T1 sequence (P21917 1-419)

male Sprague Dawley rats = test: Step-down passive avoidance task; type: in vivo, rat
Method: Method Non-naive male Sprague Dawley rats (SASCO St Louis) weighing between […], were housed in groups of three in a temperature and humidity controlled vivarium having a 12 hour light/dark cycle. Animals had ad lib access to food and water.
Clozapine was dissolved in 50% PEG and administered in a dose range of from 0.25 to 2 mg/kg. Both drugs were administered intravenously 5 minutes prior to training in both learning tasks
A step-down passive avoidance platform 4 (cm)×7(cm) was placed in the center of an electrified gris floor, which was contained within a large (45×45×50 cm) white translucent plexiglas enclosure having a closable lid. The bars of the grip were spaced 1.5 cm apart and were wired to a BRS-LVE shock generator/scrambler which was set to deliver a 2 mA 6 second shock. Four passive avoidance boxes were automated by customer software (Labview) and commercial interface modules (National Instruments) connected to a computer The timing and delivery of the shock as well as the latency to steo down and the number of trials taken to reach criterion during training was under the control of the computer. […]
Testing was conduced approximately 24 hours after training, Drug-free animals were placed on the platform in the box in which they were trained and the latency to step down onto the unshocked floor was recorded for one trial. […]

Sequence of Dopamine Receptor D2 (P14416 whole entry): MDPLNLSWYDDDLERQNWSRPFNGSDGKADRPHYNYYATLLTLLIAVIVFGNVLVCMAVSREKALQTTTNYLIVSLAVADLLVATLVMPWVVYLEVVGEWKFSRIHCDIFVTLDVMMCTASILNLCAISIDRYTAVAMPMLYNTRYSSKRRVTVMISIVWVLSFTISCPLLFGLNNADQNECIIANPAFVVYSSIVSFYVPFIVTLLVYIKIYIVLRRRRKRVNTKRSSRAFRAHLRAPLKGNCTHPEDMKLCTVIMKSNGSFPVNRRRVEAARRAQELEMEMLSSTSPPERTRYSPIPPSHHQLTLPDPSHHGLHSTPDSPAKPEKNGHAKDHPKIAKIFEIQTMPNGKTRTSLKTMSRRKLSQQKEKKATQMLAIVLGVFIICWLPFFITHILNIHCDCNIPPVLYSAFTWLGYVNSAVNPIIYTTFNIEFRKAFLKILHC
T2 sequence (P35462 whole entry): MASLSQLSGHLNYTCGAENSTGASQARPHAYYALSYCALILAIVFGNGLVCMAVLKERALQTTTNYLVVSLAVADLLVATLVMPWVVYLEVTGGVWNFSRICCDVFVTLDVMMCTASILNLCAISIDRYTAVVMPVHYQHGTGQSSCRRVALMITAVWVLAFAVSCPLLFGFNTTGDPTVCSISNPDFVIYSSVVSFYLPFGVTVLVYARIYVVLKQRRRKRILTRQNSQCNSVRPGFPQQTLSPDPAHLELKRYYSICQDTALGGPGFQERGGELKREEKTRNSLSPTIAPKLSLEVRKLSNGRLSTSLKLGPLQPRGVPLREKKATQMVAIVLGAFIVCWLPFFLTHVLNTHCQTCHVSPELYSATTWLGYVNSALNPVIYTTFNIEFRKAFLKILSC

| SMILES | Ki [1] [nM] | Ki (Dopamine Receptor D2) [nM] | Ki (Dopamine Receptor D3) [nM] | antagonist binding to D4 receptors in hippocampus [2] | antagonist binding to D4 receptors in hippocampus [3] | passive avoidance retention (time on platform at retest) vs vehicle (male Sprague Dawley rats; 0.25 mg/kg i.v. 5 minutes prior to training, retest about 24 hours later, dihydrochloride, 0.25 mg/kg) | passive avoidance acquisition vs vehicle (male Sprague Dawley rats; 0.03-1.0 mg/kg i.v. 5 minutes prior to training) |
| --- | --- | --- | --- | --- | --- | --- | --- |
| c1ccc(-c2ncc(CN3CCN(c4ccccc4)CC3)[nH]2)cc1 [Compound 45, 2-Phenyl-4(5)-[(4-phenyl-piperazin-1-yl)methyl]imidazole] | 5 | 239 | 169 | antagonists binding to dopamine D4 receptors | antagonists binding to dopamine D4 receptors |  |  |
| c1ccc(-c2ncc(CN3CCN(c4ncccn4)CC3)[nH]2)cc1 [Compound 23, 2-Phenyl-4(5)-[(4-(2-pyrimidinyl)-piperazin-1-yl)-methyl]-imidazole dihydrochloride] | 2.7 |  | 8200 | antagonists binding to dopamine D4 receptors | antagonists binding to dopamine D4 receptors | significant improvement in memory; also recorded: significantly longer time | no significant differences for acquisition |
| c1ccc(-c2nc(CN3CCN(c4ccccn4)CC3)c[nH]2)cc1 [Compound 24, 2-Phenyl-4(5)-[(4-(2-pyridyl)-piperazin-1-yl)-methyl]-imidazole dihydrochloride] | 0.85 | 1030 |  | antagonists binding to dopamine D4 receptors | antagonists binding to dopamine D4 receptors |  |  |
